Reference: PubChem BioAssay (NCI)
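Tested at 5 concentrations; 48 h exposure; 96-well plates; endpoints linearly interpolated, else capped at highest concentration. GI50 is the concentration that inhibits growth by half. TGI marks complete inhibition of growth.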

How the values were obtained:
Experiment in all cases: NCI anticancer screen, dose series, 48 h
[1] = test system: EKVX NSCLC
[2] = test system: M14 melanoma
[3] = test system: PC-3 prostate
[4] = test system: SK-MEL-28 melanoma
[5] = test system: SW-620 colon
[6] = test system: T-47D breast
[7] = test system: TK-10 renal
[8] = test system: UACC-62 melanoma

Compound | TGI [1] | TGI [2] | TGI [3] | TGI [4] | TGI [5] | TGI [6] | TGI [7] | TGI [8] | GI50 [1] | GI50 [2] | GI50 [3] | GI50 [4] | GI50 [5] | GI50 [8]
C/C=C\C(CC(=O)NCCc1c[nH]c2ccccc12)CC(=O)OC (centres undefined) | > 100 µM | > 100 µM | > 100 µM | > 100 µM | > 100 µM | > 100 µM | > 100 µM | > 100 µM |  |  |  |  |  | 
COc1ccc(C2C3=CONC3CC3CCCCC32)cc1 (centres undefined) |  | > 100 µM | > 100 µM | > 100 µM | > 100 µM | > 100 µM | > 100 µM | > 100 µM |  |  |  |  |  | 
Cc1ccc(C2(N3CCOCC3)OC(C)(C)c3cccc4cccc2c34)cc1 (centres undefined) | 29.2 µM | 32.7 µM | 34.2 µM |  | 37 µM | 60.4 µM | 39 µM | 27.8 µM |  |  |  |  |  | 
Cc1c(Cl)c(=O)oc2cc(OCC(O)COC(C)C)ccc12 (centres undefined) | > 100 µM | 92.4 µM | > 100 µM | > 100 µM | > 100 µM | > 100 µM | > 100 µM | > 100 µM |  |  |  |  |  | 
Nc1cc2ncnc(Nc3cccc(Br)c3)c2cn1 |  | > 100 µM | > 100 µM | > 100 µM | > 100 µM | > 100 µM | 8.18 µM | > 100 µM |  |  |  |  |  | 
Cn1c(O)c(/C=N/c2ncccn2)c(=O)[nH]c1=O | > 100 µM | > 100 µM | > 100 µM | > 100 µM | > 100 µM | > 100 µM | > 100 µM | > 100 µM |  |  |  |  |  | 
CC1Cc2c(cc(N)nc2Br)NC1=O (centres undefined) | > 100 µM | > 100 µM | > 100 µM | > 100 µM | > 100 µM | > 100 µM | > 100 µM | > 100 µM |  |  |  |  |  | 
Cc1ccc(C(=O)NN=C(/N=N/c2cccc(C)c2)c2ccc(N(C)C)cc2)cc1 | > 100 µM | > 100 µM | > 100 µM | > 100 µM | > 100 µM | > 100 µM | > 100 µM | > 100 µM |  |  |  |  |  | 
CCCCN(CCCC)C1=Nc2ccccc2-n2c(nnc2C(=O)OCC)C1 | > 100 µM | > 100 µM | 51.6 µM | > 100 µM | > 100 µM | > 100 µM | > 100 µM | > 100 µM |  |  |  |  |  | 
CCCCNC(=S)Nc1nc(C(=O)NNC(=S)NCc2ccccc2)cs1 | > 100 µM | > 100 µM | > 100 µM |  | > 100 µM | 59.3 µM | > 100 µM | > 100 µM |  |  |  |  |  | 
C=C1C(=O)O[C@H]2[C@H]1CC/C(COC(=O)/C=C/C(=O)OC/C1=C/CC[C@@]3(C)O[C@H]3[C@H]3OC(=O)C(=C)[C@@H]3CC1)=C\CC[C@@]1(C)O[C@@H]21 | > 100 µM | 3.89 µM | > 100 µM | 4.13 µM | 1.11 µM |  |  | 2.68 µM | 2.22 µM | 1.26 µM | 3.02 µM | 1.56 µM | 0.338 µM | 1.21 µM
O=c1cnc2cc3ccccc3cc2[nH]1 | > 100 µM | > 100 µM | > 100 µM | > 100 µM | > 100 µM |  | > 100 µM |  |  |  |  |  |  | 
CN1C(=O)C(CCO)(C(C)(C)C)c2ccccc21 (centres undefined) | > 100 µM | > 100 µM | > 100 µM | > 100 µM | > 100 µM | > 100 µM |  | > 100 µM |  |  |  |  |  | 
CC(=O)OCC1(CNc2nc(N)ncc2C#N)CC(CCc2ccccc2)C1 (centres undefined) | > 100 µM |  | > 100 µM | > 100 µM | > 100 µM | > 100 µM |  | > 100 µM |  |  |  |  |  | 
c1ccc2c(c1)ccc1nc(-c3ccc4c(c3)OCO4)c3c(c12)CCC3 | > 100 µM | > 100 µM | > 100 µM | > 100 µM | > 100 µM | > 100 µM |  | > 100 µM |  |  |  |  |  | 
CCC(=O)Nc1ccc(N2C(=O)/C(=C/c3ccc(O)c(OC)c3)N=C2c2ccccc2)cc1 | 46.4 µM | > 100 µM | 60.8 µM | > 100 µM | > 100 µM | > 100 µM |  | > 100 µM |  |  |  |  |  | 
Cc1ccc(Cl)c2c(=O)cc(-c3ccccc3)[nH]c12 |  | > 100 µM |  | > 100 µM | > 100 µM |  | > 100 µM | > 100 µM |  |  |  |  |  | 
Oc1ccc(O)c(Sc2nnc(CCCCCCCCc3nnc(Sc4cc(O)ccc4O)o3)o2)c1 | > 100 µM | > 100 µM | > 100 µM | > 100 µM | > 100 µM |  | > 100 µM | > 100 µM |  |  |  |  |  | 
O=C1/C(=C/c2cccs2)N=C(c2ccccc2)N1c1nc2ccccc2s1 | > 100 µM | > 100 µM | > 100 µM | > 100 µM | > 100 µM | > 100 µM | > 100 µM |  |  |  |  |  |  | 
CCCOC1OC(CS(=O)(=O)O)C(OC(C)=O)C(OC(C)=O)C1OC(C)=O (centres undefined) |  | > 100 µM | > 100 µM | > 100 µM | > 100 µM | > 100 µM | > 100 µM | > 100 µM |  |  |  |  |  | 
C=C1CN=C(Nc2ccc(F)cc2F)S1 | > 100 µM |  | > 100 µM | > 100 µM | > 100 µM | > 100 µM | > 100 µM |  |  |  |  |  |  | 
COc1ccc(C[C@H]2COC(=O)[C@@H]2Cc2ccccc2)cc1OC | > 100 µM |  | > 100 µM | > 100 µM | > 100 µM | > 100 µM | > 100 µM |  |  |  |  |  |  | 
OCC1c2ccccc2-n2nc(-c3ccccc3)c(O)c21 (centres undefined) | > 100 µM |  | 34.3 µM | > 100 µM | 67.3 µM | > 100 µM | 34.1 µM | 67.7 µM |  |  |  |  |  | 
Cn1cnc(/C=C/C#N)c1 | > 100 µM | > 100 µM | > 100 µM | > 100 µM | > 100 µM |  | > 100 µM | > 100 µM |  |  |  |  |  | 
O=c1oc2ccccc2c(O)c1C(c1ccc(O)cc1)c1c(O)c2ccccc2oc1=O | > 100 µM |  | > 100 µM | > 100 µM | > 100 µM | > 100 µM | > 100 µM | > 100 µM |  |  |  |  |  | 
COC(C[C@H]1CCCC[C@]1(O)/C(=C\CO[Si](C(C)C)(C(C)C)C(C)C)Sc1ccccc1)OC | > 100 µM | > 100 µM | > 100 µM | > 100 µM |  | 40.8 µM | > 100 µM | > 100 µM |  |  |  |  |  | 
Clc1ccc(Cc2nc3ccccc3nc2-c2cccc(Cl)c2)cc1 | 31.9 µM | 5.06 µM | 8.18 µM |  | 3.71 µM | > 100 µM | 25.9 µM | 3.46 µM |  |  |  |  |  | 
